Assays:
Assay type in all cases: functional
Rattus norvegicus [1] = experiment: Hepatoprotective activity against thioacetamide (200 mg/kg, sc) induced toxicity in rat at 6 mg/kg dose (po x 7 days), expressed as %protection afforded in various levels of alkaline phosphatase (ALP)
Rattus norvegicus [2] = experiment: Hepatoprotective activity against thioacetamide (200 mg/kg, sc) induced toxicity in rat at 6 mg/kg dose (po x 7 days), expressed as %protection afforded in various levels of bilirubin
Rattus norvegicus [3] = experiment: Hepatoprotective activity against thioacetamide(200 mg/kg, sc) induced toxicity in rat at 6 mg/kg dose(po x 7 days), expressed as %protection afforded in various levels of glutamate oxaloacetate transaminase (GOT)
Rattus norvegicus [4] = experiment: Hepatoprotective activity against thioacetamide(200 mg/kg, sc) induced toxicity in rat at 6 mg/kg dose(po x 7 days), expressed as %protection afforded in various levels of glutamate pyruvate transaminase (GPT)

Compound	ALP Level (Rattus norvegicus [1])	Bilurubin Level (Rattus norvegicus [2])	GOT Level (Rattus norvegicus [3])	GPT Level (Rattus norvegicus [4])
Nc1n[nH]c(N)c1Cc1ccc(Cl)cc1	205.3 U l-1	0.757 mg %	97.5 U l-1	136.2 U l-1
Nc1nc(N)nc(Cc2cc(-c3ccc(Cl)cc3)[nH]n2)n1	190.5 U l-1	0.748 mg %	119 U l-1	148.5 U l-1
Nc1nc(N)nc(Cc2cc(-c3ccc(F)cc3)[nH]n2)n1	203.2 U l-1	0.807 mg %	121.6 U l-1	129 U l-1
CC(=O)Nc1[nH]nc(N)c1Cc1ccc(Cl)cc1	204 U l-1	0.693 mg %	96.7 U l-1	146 U l-1
CN(C)c1ccc(Cc2c(N)noc2N)cc1	206.6 U l-1	0.786 mg %	114 U l-1	146.2 U l-1
COc1ccc(Cc2c(N)noc2N)cc1	215.9 U l-1	0.745 mg %	99.9 U l-1	87.4 U l-1
CC(=N)S [THIOACETAMIDE]	218.9 U l-1	0.829 mg %	128 U l-1	171.5 U l-1
Cc1ccc(-c2cc(Cc3nnc(N)s3)n(-c3ccccc3)n2)cc1	196 U l-1	0.575 mg %	65.2 U l-1	87.5 U l-1
Nc1n[nH]c(N)c1Cc1ccc2c(c1)OCO2	196.9 U l-1	0.758 mg %	75.6 U l-1	99.2 U l-1
CN(C)c1ccc(Cc2c(N)n[nH]c2N)cc1	187.1 U l-1	0.568 mg %	67.1 U l-1	93.8 U l-1
Nc1noc(N)c1Cc1ccc(Cl)cc1	201 U l-1	0.735 mg %	106 U l-1	112.5 U l-1
Nc1noc(N)c1Cc1ccc2c(c1)OCO2	205.8 U l-1	0.69 mg %	101.5 U l-1	109.3 U l-1
COc1ccc(Cc2c(N)n[nH]c2N)cc1	187 U l-1	0.619 mg %	70.4 U l-1	85.5 U l-1
SILYMARIN	199 U l-1	0.617 mg %	84.5 U l-1	110 U l-1

From ChEMBL document CHEMBL1128770, “Amino azoles and azolo-azines as potential hepatoprotectants: Part III” (1995)
